Assays:
[1] = Mode of spraying: average particle size and minimum temperature of target area (Test Example 3); format: physicochemical
Method: (§1) In Test Example 3, modes of spraying from the spray nozzle 10 in the head cap 2 were examined. This is to examine the refrigerating and behavioral inhibiting effects on a noxious insect by a noxious insect behavioral inhibitor A which is sprayed from the spray nozzle 10. Specifically, a wooden flooring was prepared on which a glass ring (having a diameter of 9 cm and a height of 6 cm) was placed. […] And, one female adult of Periplaneta fuliginosa is introduced inside of the glass ring. On the other hand, two different head caps were prepared, one provided with a single spray nozzle 10 and the other provided with a pressure reducer means comprising an upper and a lower spray nozzle 10a and 10b. And, using them, the noxious insect behavioral inhibitor A is sprayed for 3 seconds toward the Periplaneta fuliginosa from a distance of 50 cm therefrom, and the state of the Periplaneta fuliginosa thereafter (possible knockdown after 2 minutes and after 1 hour and fatality after 24 hours) is observed. Further, the minimum temperatures of a target area of spraying are measured. And, the room temperature is 25° C., and the noxious insect behavioral inhibitor A is HFC-152a alone (100%). The two head caps 2, the one with the single spray nozzle 10 and the other with the two spray nozzles 10, are made to spray substantially at a identical rate of spraying.
(§2) Also, in Test Example 3, noxious insect behavioral inhibitors containing HFO-1234ze alone (100%), at a content of 75% and at a content of 50% were examined. What is mixed is dimethyl ether.

[2] = Back-fire test of aerosol sprayers loaded with various gases (Test Example 1); conditions: sprayed 5 seconds towards burner flame, sprayer at 25° C.
Method: (§3) Test Example 1 relates to back-fire tests for the aerosol sprayer using various gases. Specifically, aerosol sprayers loaded with various gases acting as both propellant and refrigerant were prepared. And, after these aerosol sprayers were immersed in a thermostatic bath at 25° C. for 1 hour, each of them was arranged with the flame, as a fire origin, of an ignited burner so that the spray nozzle of its head cap and the flame lied horizontally in the same height. And, each gas was sprayed from the spray nozzle of the head cap in the aerosol sprayer for 5 seconds towards the flame as the fire origin to check if there was a backfire. This was repeated a plurality of times. Here, the fire origin was spaced from the spray nozzle at a distance of 15 cm and at a distance of 60 cm.
Further, HFO-1234ze as another alternative for chlorofluorocarbon was also subjected to the same backfire tests as for HFC-152a and HFC-134a in Text Example 1 mentioned above.

[3] = Back-fire test on content of HFC-152a / HFO-1234ze mixed with LPG or dimethyl ether (Test Example 2); conditions: varied mixture ratio, sprayed 5 seconds towards burner flame
Method: as §3, with “In Test” for “Test”, “Example 2, aerosol sprayers using HFC-152a as an alternative for chlorofluorocarbon were tested on its content. This, too,” for “Example 1”, “back-fire tests.” for “back-fire tests for the aerosol sprayer using various gases.”, “with HFC-152a alone” for “with various gases acting as both propellant”, “and mixtures of HFC-15a with LPG or dimethyl ether (in varied mixture ratio)” for “and refrigerant”, “15” for “15 cm and at a distance of 60”
Further, HFO-1234ze as another alternative for chlorofluorocarbon was also tested on its content as in Text Example 2 above. Specifically, aerosol sprayers loaded with HFO-1234ze alone and mixtures of HFO-1234ze with LPG or dimethyl ether (in varied mixture ratio) were prepared. […]

Periplaneta fuliginosa = experiment: Biological test: knockdown and fatality after 3 second spray from 50 cm (Test Example 3); format: in vivo; conditions: female adult
Method: as §1, §2

[4] = two spray nozzles (upper 1.5 mm, lower 1.8 mm)
[5] = single spray nozzle (1.5 mm diameter), n = 10
[6] = two spray nozzles (upper 1.5 mm, lower 1.8 mm), n = 10

Average particle size ([1]; single spray nozzle (1.5 mm diameter)) [μm]	SMILES	Average particle size [1, 4] [μm]	Backfire, 15 cm distant from Fire Origin [2]	Backfire, 60 cm distant from Fire Origin [2]	Backfire, 15 cm distant from Fire Origin (content test) [3]	Fatality after 24 hours (Periplaneta fuliginosa; [5]) [%]	Knockdown rate after 1 hour (Periplaneta fuliginosa; [5]) [%]	Knockdown rate after 2 minutes (Periplaneta fuliginosa; single spray nozzle (1.5 mm diameter), n = 10, room temperature 25° C.) [%]	Fatality after 24 hours (Periplaneta fuliginosa; [6]) [%]	Knockdown rate after 2 minutes (Periplaneta fuliginosa; [6]) [%]	Knockdown rate after 1 hour (Periplaneta fuliginosa; [6]) [%]
57	CC(F)F [HFC-152a (100%), 1,1-difluoroethane]	97	Not Backfired	Not Backfired	Not Back-fired	10	40	90	100	100	100
–	FC=CC(F)(F)F [HFO-1234ze (100%), 1,3,3,3-tetrafluoropropene]	120	Not Backfired	Not Backfired	Not Back-fired	–	–	–	60	100	100
–	FCC(F)(F)F [HFC-134a (100%)]	–	Not Backfired	Not Backfired	–	–	–	–	–	–	–
–	COC [dimethyl ether (100%), dimethyl ether, reference compound]	–	Backfired	Backfired	–	–	–	–	–	–	–
